Calls of active or inactive are those of the source. The rule behind the calls is not given here.
Legend:
[1] = Cytotoxicity against mouse RAW264.7 cells assessed as reduction in cell viability at 20 uM incubated for 24 hrs by MTT assay; type: cell-based; conditions: read-out: INH
[2] = test system: Staphylococcus epidermidis; test: Antibacterial activity against Staphylococcus epidermidis KCTC 1917 assessed as reduction in bacterial growth incubated for 24 hrs by CLSI based broth dilution method; type: functional; conditions: read-out: MIC100
Bacillus subtilis = test: Antibacterial activity against Bacillus subtilis KCTC 3068 assessed as reduction in bacterial growth incubated for 24 hrs by CLSI based broth dilution method; type: functional; conditions: read-out: MIC100
Staphylococcus aureus [3] = test: Antibacterial activity against methicillin-resistant Staphylococcus aureus CCARM 3089 assessed as reduction in bacterial growth incubated for 24 hrs by CLSI based broth dilution method; type: functional; conditions: read-out: MIC100
Staphylococcus aureus [4] = test: Antibacterial activity against methicillin-resistant Staphylococcus aureus CCARM 3090 assessed as reduction in bacterial growth incubated for 24 hrs by CLSI based broth dilution method; type: functional; conditions: read-out: MIC100
Staphylococcus aureus [5] = test: Antibacterial activity against methicillin-resistant Staphylococcus aureus CCARM 3095 assessed as reduction in bacterial growth incubated for 24 hrs by CLSI based broth dilution method; type: functional; conditions: read-out: MIC100
Enterococcus faecium = test: Antibacterial activity against vancomycin-resistant Enterococcus faecium ATCC 51559 assessed as reduction in bacterial growth incubated for 24 hrs by CLSI based broth dilution method; type: functional; conditions: read-out: MIC100
Escherichia coli [6] = test: Antibacterial activity against Escherichia coli KCTC 1682 assessed as reduction in bacterial growth incubated for 24 hrs by CLSI based broth dilution method; type: functional; conditions: read-out: MIC100
Candida albicans = test: Antifungal activity against Candida albicans KCTC 7121 assessed as reduction in fungal growth incubated for 24 hrs by CLSI based broth dilution method; type: functional; conditions: read-out: MIC100
Erythrocyte = test: Hemolytic activity in sheep RBC assessed as reduction in hemoglobin incubated for 1 hr; type: ADME, cell-based, Ovis aries
[7] = Therapeutic index, ratio of HC10 for sheep RBC to geometric mean MIC for yeast; type: toxicity; conditions: sheep red blood cells, read-out: TI
RAW264.7 [8] = test: Antiinflammatory activity against mouse RAW264.7 cells assessed as reduction in LPS-induced TNFalpha level at 10 uM incubated for 24 hrs by […] relative to control; type: functional
RAW264.7 [9] = test: Antiinflammatory activity against mouse RAW264.7 cells assessed as reduction in LPS-induced iNOS mRNA expression at 5 uM incubated for 6 hrs by qRT-PCR analysis; type: functional, cell-based
RAW264.7 [10] = test: Antiinflammatory activity against mouse RAW264.7 cells assessed as reduction in LPS-induced TNFalpha mRNA expression at 10 uM incubated for 3 hrs by qRT-PCR analysis; type: functional, cell-based
Escherichia coli [11] = test: Antibacterial activity against Escherichia coli KCTC 1682 assessed as reduction in bacterial growth incubated for 24 hrs in presence of 4.5 mM KCl by CLSI based broth dilution method; type: functional; conditions: read-out: MIC100
Escherichia coli [12] = test: Antibacterial activity against Escherichia coli KCTC 1682 assessed as reduction in bacterial growth incubated for 24 hrs in presence of 1 mM MgCl2 by CLSI based broth dilution method; type: functional; conditions: read-out: MIC100
Staphylococcus aureus [13] = test: Antibacterial activity against Staphylococcus aureus KCTC 1621 assessed as reduction in bacterial growth incubated for 24 hrs in presence of 4.5 mM KCl by CLSI based broth dilution method; type: functional; conditions: read-out: MIC100
Staphylococcus aureus [14] = test: Antibacterial activity against Staphylococcus aureus KCTC 1621 assessed as reduction in bacterial growth incubated for 24 hrs in presence of 6 uM NH4Cl by CLSI based broth dilution method; type: functional; conditions: read-out: MIC100
Staphylococcus aureus [15] = test: Antibacterial activity against Staphylococcus aureus KCTC 1621 assessed as reduction in bacterial growth incubated for 24 hrs in presence of 1 mM MgCl2 by CLSI based broth dilution method; type: functional; conditions: read-out: MIC100
Staphylococcus aureus [16] = test: Antibacterial activity against Staphylococcus aureus KCTC 1621 assessed as reduction in bacterial growth incubated for 24 hrs in presence of 4 uM FeCl3 by CLSI based broth dilution method; type: functional; conditions: read-out: MIC100
Staphylococcus aureus [17] = test: Antibacterial activity against methicillin-resistant Staphylococcus aureus CCARM 3090 assessed as reduction in bacterial growth incubated for 24 hrs in presence of chloramphenicol by CLSI based broth dilution method; type: functional; conditions: read-out: MIC100
Staphylococcus aureus [18] = test: Antibacterial activity against methicillin-resistant Staphylococcus aureus CCARM 3090 assessed as fractional inhibitory concentration incubated for 24 hrs in presence of chloramphenicol by CLSI based broth dilution method; type: functional
Staphylococcus aureus [19] = test: Antibacterial activity against methicillin-resistant Staphylococcus aureus CCARM 3090 assessed as fractional inhibitory concentration incubated for 24 hrs in presence of ciprofloxacin by CLSI based broth dilution method; type: functional
Staphylococcus aureus [20] = test: Antibacterial activity against methicillin-resistant Staphylococcus aureus CCARM 3090 assessed as fractional inhibitory concentration incubated for 24 hrs in presence of oxacillin by CLSI based broth dilution method; type: functional
Staphylococcus aureus [21] = test: Antibacterial activity against methicillin-resistant Staphylococcus aureus CCARM 3090 assessed as fractional inhibitory concentration index incubated for 24 hrs in presence of chloramphenicol by CLSI based broth dilution method; type: functional
Staphylococcus aureus [22] = test: Antibacterial activity against methicillin-resistant Staphylococcus aureus CCARM 3090 assessed as fractional inhibitory concentration index incubated for 24 hrs in presence of ciprofloxacin by CLSI based broth dilution method; type: functional
Staphylococcus aureus [23] = test: Antibacterial activity against methicillin-resistant Staphylococcus aureus CCARM 3090 assessed as fractional inhibitory concentration index incubated for 24 hrs in presence of oxacillin by CLSI based broth dilution method; type: functional
[24] = Antibacterial activity against multidrug-resistant Pseudomonas aeruginosa CCARM 2095 assessed as reduction in bacterial growth incubated for 24 hrs in presence of chloramphenicol by CLSI based broth dilution method; type: functional; conditions: read-out: MIC100
[25] = Antibacterial activity against multidrug-resistant Pseudomonas aeruginosa CCARM 2095 assessed as fractional inhibitory concentration index incubated for 24 hrs in presence of chloramphenicol by CLSI based broth dilution method; type: functional
Escherichia coli [26] = test: Bacteriostatic activity against Escherichia coli KCTC 1682 assessed as reduction in colony forming unit at 0.5 times MIC measured for 24 hrs by time kill assay; type: functional
Cell membrane [27] = test: Induction of cell membrane permeability in Escherichia coli KCTC 1682 assessed as […] at 16 uM by ONPG dye based spectrophotometry; type: subcellular
Cell membrane [28] = test: Induction of cell membrane permeability in Escherichia coli KCTC 1682 assessed as cytoplasmic membrane […] fluorescent signals at 2 times MIC measured after 1 hr by propidium iodide dye based flow cytometry analysis (reference value: 9.8 %); type: subcellular
[29] = Drug uptake in Escherichia coli KCTC 1682 assessed as cytoplasmic accumulation at 2 times MIC incubated for 30 mins by confocal laser scanning microscopy; type: ADME; conditions: 0.5 h
Lipopolysaccharide (LPS) [30] = test: Displacement of BODIPY-TR cadaverine from Escherichia coli O111:B4 LPS at 20 uM measured for 100 sec by spectrofluorometry relative to control
RAW264.7 [31] = test: Antiinflammatory activity in mouse RAW264.7 cells assessed as suppression of LPS binding by measuring LPS-FITC aggregation at 10 uM pretreated with LPS for 1 hr followed by compound addition and measured after 30 mins by flowcytometry analysis (reference value: 67.93 %); type: functional; conditions: 0.5 h
[32] = Retention time of the compound by RP-HPLC method; type: physicochemical
Lipopolysaccharide (LPS) [33] = test: Displacement of BODIPY-TR cadaverine from Escherichia coli O111:B4 LPS measured for 100 sec by spectrofluorometry

| Substance | cytotoxicity at 24 h, 20 µM [1] [%] | MIC [2] [µM] | MIC (Bacillus subtilis) [µM] | MIC (Staphylococcus aureus [3]) [µM] | MIC (Staphylococcus aureus [4]) [µM] | MIC (Staphylococcus aureus [5]) [µM] | MIC (Enterococcus faecium) [µM] | MIC (Escherichia coli [6]) [µM] | MIC (Candida albicans) [µM] | HC10 (Erythrocyte) [µM] | selectivity ratio [7] | inhibition at 10 µM (RAW264.7 [8]) [%] | inhibition (RAW264.7 [9]) | inhibition (RAW264.7 [10]) | MIC (Escherichia coli [11]) [µM] | MIC (Escherichia coli [12]) [µM] | MIC (Staphylococcus aureus [13]) [µM] | MIC (Staphylococcus aureus [14]) [µM] | MIC (Staphylococcus aureus [15]) [µM] | MIC (Staphylococcus aureus [16]) [µM] | also measured |
| --- | --- | --- | --- | --- | --- | --- | --- | --- | --- | --- | --- | --- | --- | --- | --- | --- | --- | --- | --- | --- | --- |
| H-LIKKIYRKWKRW-NH2 | < 10 | 4 | 2 | 16 | 8 | 8 | 8 | 8 | 4 | > 256 | 853 | 47.3 | Active | Active | 2 | 8 | 4 | 8 | 4 | 8 | MIC (Staphylococcus aureus [17]): 32 µM; FIC (Staphylococcus aureus [18]): 0.25; FIC (Staphylococcus aureus [19]): 0.25; FIC (Staphylococcus aureus [20]): 0.125; fractional inhibitory concentration index (FICI) (Staphylococcus aureus [21]): 0.5; fractional inhibitory concentration index (FICI) (Staphylococcus aureus [22]): 0.5; fractional inhibitory concentration index (FICI) (Staphylococcus aureus [23]): 0.375; MIC [24]: 64 µM; fractional inhibitory concentration index (FICI) [25]: 0.313; Activity (Escherichia coli [26]): 3 log10CFU/ml; Activity (Cell membrane [27]): inactive; Activity (Cell membrane [28]): 9.53%; Drug uptake [29]: Active; Activity (Lipopolysaccharide (LPS) [30]): 68%; Activity (RAW264.7 [31]): 32.51%; Retention_time [32]: 16.2 min |
| H-LWKKIYRKWKRW-NH2 | < 10 | 4 | 2 | 16 | 8 | 8 | 8 | 4 | 4 | > 256 | 853 | 65 | Active | Active | 4 | 4 | 4 | 2 | 4 | 8 | MIC (Staphylococcus aureus [17]): 32 µM; FIC (Staphylococcus aureus [18]): 0.25; FIC (Staphylococcus aureus [19]): 0.125; FIC (Staphylococcus aureus [20]): 0.125; fractional inhibitory concentration index (FICI) (Staphylococcus aureus [21]): 0.5; fractional inhibitory concentration index (FICI) (Staphylococcus aureus [22]): 0.375; fractional inhibitory concentration index (FICI) (Staphylococcus aureus [23]): 0.375; MIC [24]: 128 µM; fractional inhibitory concentration index (FICI) [25]: 0.375; Activity (Escherichia coli [26]): 3 log10CFU/ml; Activity (Cell membrane [27]): inactive; Activity (Cell membrane [28]): 6.31%; Drug uptake [29]: Active; Activity (Lipopolysaccharide (LPS) [33]): Dose-dependent effect; Activity (RAW264.7 [31]): 17.64%; Retention_time [32]: 17.3 min |

From ChEMBL document CHEMBL4765389, “Antimicrobial and anti-inflammatory activities of short dodecapeptides derived from duck cathelicidin: Plausible mechanism of bactericidal action and endotoxin neutralization” (Eur J Med Chem, 2020)
